Test results as given in US20200124597A1, “INDICATOR RELEASE SYSTEM FOR THE DETECTION OF AN ANALYTE IN A FOODSTUFF, TEST STRIP THEREFOR, AND ANALYSIS METHOD” (Bundesrepublik Deutschland, vertreten durch die …, priority 2017, published 2020).

What was measured:
[1] = system: rabbit antisera against the hapten sulfathiazole (STZ), capping antibody; experiment: Biphasic extraction assay: fluorescence of CHCl3 phase after dye extraction from M7-A1@B suspensions in raw milk; type: binding
Protocol: (§1) Capping of the material was performed following the same conditions as for the preparation of M4-A1 @B, but in this case 1 mg of the mesoporous silica was suspended in 450 μL of PBS containing 360 ppm of BODIPY-PEG and 2 μL of the serum for 30 min. Thereafter, 50 μL of BSA solution (5%) were added to the suspensions and stirred for another 1.5 h. […] Before centrifuging the suspension in the last washing cycle, it was divided into 10 fractions, which were dried separately for 1 h in the vacuum at room temperature and stored in the fridge, yielding 10 fractions of ca. 100 μg of M7-A1@B.
Next, the effect of the concentration of STZ and SPY was studied. For this purpose, we repeated the procedure but added different concentrations of the corresponding sulfonamide into each fraction and took an aliquot from the chloroform phase after 10 min of reaction (FIG. 10). In this case, milk stored in the fridge for 5 and 7 d was used. It is obvious that a highly sensitive response could be found in both cases, with an LOQ of 0.5±0.1 ppb and an IC50 of 0.8±0.1 ppb for STZ. For SPY, both the fluorescence increase and the sensitivity are lower (LOQ: 4.6±2.2 ppb, IC50: 16.2±6.9 ppb).
The red points were classified as outliers and not considered in the fit (N=2, only one repetition shown).
The sensitivity could further be improved by increasing the number of washing cycles of the material before use, although the fluorescence enhancement is lower due to partial dye removal during continued washing. […] Furthermore, the amount of dye released in the working range of the assay at lower STZ concentrations (100 ppt) is at least 100 times higher, preferably 200-times higher than that of antibody displaced, decreasing to 80-times at concentrations higher than 50 ppb, which is a remarkable sign of signal amplification especially in the desired low-concentration range.

[2] = system: rabbit antisera against the hapten sulfathiazole (STZ), capping antibody; experiment: Fluorescence of supernatants of M4-A1@B (SRB-loaded, antibody-gated MCM-41) suspensions after adding STZ prepared in milk; type: binding; settings: M4-A1@B suspension in PBS, STZ solutions prepared in milk, λem=585 nm, λexc=560 nm, logistic fit
Protocol: The pores of the particles were filled with the dye sulforhodamine B (SRB). With the aim of loading the maximum amount of dye into the MCM-41 scaffold, a solution of the dye SRB sodium salt (2 mmol L^−1) was prepared in acetonitrile. Then, 2 portions of 12.0 mL were added to 300 mg of each MCM-41 nano- or microparticle material, yielding a suspension with a concentration of 0.8 mmol dye (g solid)^−1. The suspension was stirred for 24 h at room temperature. Two fractions of each type of material (2×40 mL) were centrifuged (5 min at 6000 rpm) and concentrated in a final volume of 1.5 mL. Thereafter, volumes of 0.14 mL and 0.7 mL of hapten solution (0.02 and 0.01 mmol) in DMF were added, arriving at final suspensions of 0.2 and 0.1 mmol (g solid)^−1. The resulting suspensions were stirred for 5.5 h at room temperature. Finally, the suspensions were centrifuged (5 min at 6000 rpm), and the solids obtained were washed with acetonitrile (0.75 mL), isolated by centrifugation, and dried at 35° C. in vacuum during 12 h. […]
The fluorescence enhancement caused by STZ at different concentrations was assessed in milk as well. […] Then, 6 μL of STZ solutions of different concentrations were added to the other fractions, the vials shaken by hand for 20 s and centrifuged before measuring the fluorescence of the supernatants in a fluorometer (λem=585 nm, λexc=560 nm).

[3] = system: rabbit antisera against the hapten sulfathiazole (STZ), capping antibody; experiment: Lateral flow test strips spotted with M4-A1@B, developed in raw milk spiked with STZ, fluorescence reader; type: binding; settings: M4-A1@B on nitrocellulose strips, ratio FB/(FA+FB) with lateral flow reader, data considerably noisy
Text: As explained above, after development the strips show two different zones, a first one (zone A) at which the sensing material (indicator reservoir) has been deposited, and a second one (zone B) in which the released dye is collected that could travel with the solvent front (see FIGS. 2, 7).
In case of absence of a sulfonamide, the second zone (zone B in FIG. 7) should show minimum signal. In case of presence, the fluorescence in that zone should correlate with analyte concentration. The amount of dye released can be quantified with a fluorescence reader with appropriate excitation and emission wavelengths or by taking pictures under proper light excitation conditions. Strips were prepared using a Hi-Flow nitrocellulose paper from Millipore®. […]
Afterwards, the strips were dipped into 150 μL of raw milk spiked with various amounts of STZ, developed and let dried at room temperature. […] Afterwards, the fluorescence histograms were registered with a lateral flow reader and a home-made housing equipped with an LED (λexc 505 nm) as excitation source and filters (532 nm cut-off and 550 nm long-pass) that can be fitted to a conventional digital camera. […] FIG. 6 c) (luminance of dye released in second zone and FIG. 6 d) (ratio of luminance) allows to compare the reader results with those obtained by extracting the luminance from images taken with a camera. […]

[4] = system: rabbit antisera against the hapten sulfathiazole (STZ), capping antibody; experiment: Fluorescence of supernatants of M7-A1@B (BODIPY-PEG-loaded, antibody-gated) suspensions in milk; type: binding; settings: M7-A1@B suspension in milk, 10 min, 535 nm (λexc=515 nm), logistic fit
Protocol: as §1
In an attempt to avoid the extraction process, and with the aim to compare the effect of different dyes to M4-A1 @B, respectively, first of all the material M7-A1@B was tested in absence and in presence of several amounts of STZ following similar a procedure as explained previously. For that purpose, two independent experiments were performed, using in one case milk provided from FOSS stored in the fridge (6 d) and fresh milk from Poland (1 d in the fridge). […] Then, 20 μL of STZ solutions of different concentrations were added to the rest of the fractions (80 μL), the vials were shaken in the thermomixer at 800 rpm for 10 min, centrifuged and the fluorescence of the supernatants measured at 535 nm with λexc=515 nm (FIG. 9).

[5] = Dye partitioning from water/milk to CHCl3; type: physicochemical; settings: phase transfer from water/milk to CHCl3
Protocol: as §1

[6] = M7-A1@B in raw milk, CHCl3 phase, 10 min reaction, 538 nm (λexc=515 nm)
[7] = M7-A1@B, increased number of washing cycles of the material before use

Nc1ccc(S(=O)(=O)Nc2ccccn2)cc1 [SPY, sulfapyridine]
IC50 [1, 6]: 16.2±6.9 ppb
LOQ [1, 6]: 4.6±2.2 ppb
IC50 [1, 7]: 4.4±1.7 ppb
LOQ [1, 7]: 0.78±0.38 ppb

Nc1ccc(S(=O)(=O)Nc2nccs2)cc1 [STZ, sulfathiazole]
IC20, i.e. limit of quantification (LOQ) [2]: 87±8 ppb
IC50 [2]: 172±12 ppb
IC50 [3]: below 1 ppb
IC50 [4]: 1.5±1.4 ppb
limit of quantification (LOQ) [4]: 65±18 ppt
IC50 [1, 6]: 0.8±0.1 ppb
LOQ [1, 6]: 0.5±0.1 ppb
IC50 [1, 7]: 0.28±0.15 ppb
LOQ [1, 7]: 0.02±0.01 ppb

CCN(CC)c1ccc2c(-c3ccc(S(=O)(=O)O)cc3S(=O)(=O)[O-])c3ccc(=[N+](CC)CC)cc-3oc2c1 [sulforhodamine B]
dye partitioning coefficient [5]: too low to undergo efficient phase transfer
